The source of these data is patent publication US20230136702A1, “Inhibitors of Human Herpesviruses” (The Governors of the University of Alberta, priority 2020, published 2023).

The target in series [1] is T1, HCMV DNA polymerase (UL54) (Human cytomegalovirus, UniProt P08546).
T1 construct: 6His (C); made in house; host or cells: Sf9 insect cells (baculovirus, pFastBac)
Briefly: HCMV DNA polymerase enzyme inhibition assay (ProFoldin, fluorescence). Type of series: biochemical. The conditions noted are these: 37° C., duplicate, max 40 μM. On the procedure:
The HCMV DNA polymerase assay was developed by ProFoldin. The assay detects the formation of DNA from the DNA polymerase reaction in the presence of a DNA template, dATP and dGTP. The formation of the DNA is detected by using a fluorescence method. The fluorescence intensity increases when DNA is generated by the enzyme reaction.
A time-course experiment was performed aside the enzyme inhibition assay to ensure the assay was sensitive to the enzyme inhibition. The wells for the time-course experiment contained 1 μL of DMSO and the same reaction mixture as that in the enzyme inhibition assay. The time-course data varied between plates. The reactions were stopped when the fluorescence reached a value of about 3700 for each plate.
Exemplary solid compounds (e.g., as described herein) were dissolved in DMSO to make […] stock solutions. PFA (phosphonoformic acid or phosphonomethanoic acid) was used as a positive control. The compound mother plates were prepared at 50× concentrated compound concentrations with a 2-fold serial dilution. All the exemplary compounds except PFA were diluted in DMSO. PFA was diluted in water. The maximum compound concentration was 2 mM that gave the final concentration of 40 μM in the assay. One microliter of the 50× stock solutions was transferred into the assay plates. Three copies of assay plates were prepared, two for HCMV DNA polymerase assay and one for compound background control.
The following is the protocol for enzyme inhibition performed at 37° C.:
1. Prepared a premix composed of 35347 μL of H2O, 5220 μL of 10× assay buffer and 149 μL of 350×HCMV DNA polymerase.
2. Added 39 μL of the premix into the wells with 1 μL of the compound. Incubated the mixture for at least 5 min.
3. Added 10 μL of 5×dNTP (0.1 mM), 5×DNA template solutions into each well and incubated the solution until the fluorescence value reached a value about 3700 for the DMSO-only control wells.
4. Added 50 μL of the 1× dye into the wells.
5. Read the fluorescence at emission wavelength of 535 nm and excitation wavelength of 485 nm.
For the compound background reading, added 99 μL of water in the wells with 1 μL of compounds and read the fluorescence. […] The 0% inhibition value F0 was from the wells with DMSO (no inhibitor).
The background values were subtracted from the fluorescence reading to get the net fluorescence values. The net fluorescence values were used for calculation of the percentage inhibition.
The assay was performed in duplicate for the test article at […], 1.25, 0.625, 0.313, 0.156 and 0.078 μM. The IC50 curves were obtained by fitting the percentage inhibition values with the compound concentrations using Prism GraphPad software.

For series [2], the system named is HCMV US3-6-EGFP-HCMV-AD169 strain. Briefly: In vitro inhibitory (antiviral) activity against HCMV, GFP reporter in MRC5 cells. Type of series: cell-based, Human cytomegalovirus (HCMV). The conditions noted are these: Human betaherpesvirus 5, AD169, MRC5, 96 h, read-out: HCMV Antiviral EC50 range. The procedure:
(§1) Exemplary compounds (e.g., as described herein) were prepared as 20 mM stock solutions with DMSO. Reference compound was ganciclovir (Sigma). Compounds were tested at 8 concentrations, 3-fold serial dilutions, in duplicate for EC50 and CC50 determinations. The highest testing concentrations of the exemplary compounds and reference compound were 40 μM and 100 μM, respectively. The final concentration of DMSO in the cell culture was 0.5%.
HCMV US3-6-EGFP-HCMV-AD169 strain was obtained from Institute Pasteur of Shanghai, CAS. The virus contains GFP as a reporter of the viral replication.
(§2) MRC5 cells (ATCC CCL-171) was obtained from the ATCC and maintained in the EMEM (Sigma) supplemented with 10% FBS (HyClone), 1% L-glutamine (Gibco), 1% NEAA (Gibco), and 1% PS (Hyclone). Reagent:
In 96-well plates, MRC5 cells were seeded at 20,000 cells per well and cultured at 37° C. and 5% C02 overnight. Next day, compounds (8 concentrations, 3-fold dilutions, in duplicate) and US3-6-EGFP-HCMV-AD169 (MOI=0.1) were added to the cells. The resulting cultures were incubated at 37° C. and 5% C02 for 4 days. Fluorescence intensity was determined by Acumen Cellista (TTP LabTech). The antiviral activity of each compound was calculated based on the inhibition of expression of GFP at each concentration normalized by the cell control (cells without virus infection or compound treatment).
(§3) Antiviral activity and cytotoxicity of the compounds were expressed as % Inhibition and % Viability, respectively, and calculated with the formulas below:
Inhibition (%)=100−(Raw dataCPD−AverageCC)/(AverageVC−AverageCC)*100
(§4) Raw dataCPD indicates the values of the compound-treated wells; AverageVC, AverageCC and AverageMC indicate the average values of the virus control (cells infected with virus, without compound treatment), cell control and medium control wells, respectively.
(§5) EC50 and CC50 values were calculated using the GraphPad Prism software.

Series [3] can be described thus: Cytotoxicity in MRC5 cells without virus infection (CCK8). Type of series: cell-based. The conditions noted are these: human. On the procedure: as §1, §2
Cytotoxicity of the compounds was assessed under the same conditions, but without virus infection, in parallel. Cell viability was measured with CCK8 following the manufacturer's manual. CC50 values were then calculated based on cytotoxicity at the test concentrations normalized by the medium control (medium only).
as §3
Viability (%)=(Raw dataCPD−AverageMC)/(AverageCC−AverageMC)*100
as §4, §5

The target of another series is T2, hERG potassium channel (Homo sapiens, UniProt Q12809).
T2 construct: host or cells: CHO cells stably expressing hERG
Put plainly: Inhibition of hERG potassium channel, automated patch clamp (SyncroPatch 384PE) in CHO cells. Type of series: cell-based. On the procedure: This automated patch clamp method (SyncroPatch 384PE) CHO cells stably expressing hERG potassium channels from Sophion Biosciences were used for this test.
The cells were cultured in a humidified and air-controlled (5% C02) incubator at 37° C.
The CHO cells which were at least two days after plating and more than 75% confluent would be used for experiments. Before testing, cells were harvested using TrypLE and resuspended in the physiological solution at the room temperature.
For the electrophysiological recordings the following solutions were used (Table 5). The physiological solution and external solution were prepared at least one month. The intracellular solution was prepared in batches aliquoted, and stored at 4° C. until used.
Exemplary compounds (e.g., as described herein) were dissolved in 100% DMSO to obtain stock solutions for different test concentrations. Then the stock solutions were further diluted into external solution to achieve final concentrations for testing. Visual check for precipitation was conducted before testing. Final DMSO concentration in external solution was not more than 0.30% for the compounds.
From this holding potential of −80 mV, the voltage was first stepped to −50 mV for 80 ms for leak subtraction, and then stepped to +20 mV for 4800 ms to open hERG channels. After that, the voltage was stepped back down to −50 mV for 5000 ms, causing a “rebound” or tail current, which was measured and collected for data analysis. Finally, the voltage was stepped back to the holding potential (−80 mV, 1000 ms). This voltage command protocol was repeated every 20000 msec. This command protocol was performed continuously during the test (vehicle control and test compound).
hERG SyncroPatch assay was conducted at room temperature. The Setup, Prime Chip, Catch and Seal Cells, Amplifier Settings, Voltage and Application Protocols were established with Biomek Software (Nanion).
One addition of 40 μL of the vehicle was applied, followed by 300s for a baseline period. Then the doses of exemplary test compounds were added with 40 μL. The exposure of test compound at each concentration was no less than 300s. […] Five concentrations (0.494 μM, 1.48 μM, 4.44 μM, 13.33 μM and 40.00 μM) were tested for each compound. Minimum 2 replicates per concentration were obtained.
Within each well recording, percent of control values were calculated for each test compound concentration current response based on peak current in presence of reference control (current response/peak current)×100%. The Dose-Response curves were fit to the standard Hill equation as shown below:
Ipost cpd/Ipre cpd=Bottom+(Top−Bottom)/(1+10^((Log IC50−X)*HillSlope))
Where X is the logarithm of concentration, Ipost cpd/Ipre cpd is the normalized peak current amplitude, Top is 1 and Bottom is equal to 0.
Curve-fitting and IC50 calculations were performed by GraphPad Prism 5.0. If the inhibition obtained at the lowest concentration tested was over 50%, or at the highest concentration tested was less than 50%, we reported the IC50 as less than lowest concentration, or higher than highest concentration, respectively.

[4] abbreviates: CHO cells stably expressing hERG, room temperature, 0.494-40.00 μM, read-out: CHO-hERG Activity Range.

The structures appear in SMILES notation. Read-outs that look alike come from different tables or passages of the source.

T2 sequence (Q12809 whole entry): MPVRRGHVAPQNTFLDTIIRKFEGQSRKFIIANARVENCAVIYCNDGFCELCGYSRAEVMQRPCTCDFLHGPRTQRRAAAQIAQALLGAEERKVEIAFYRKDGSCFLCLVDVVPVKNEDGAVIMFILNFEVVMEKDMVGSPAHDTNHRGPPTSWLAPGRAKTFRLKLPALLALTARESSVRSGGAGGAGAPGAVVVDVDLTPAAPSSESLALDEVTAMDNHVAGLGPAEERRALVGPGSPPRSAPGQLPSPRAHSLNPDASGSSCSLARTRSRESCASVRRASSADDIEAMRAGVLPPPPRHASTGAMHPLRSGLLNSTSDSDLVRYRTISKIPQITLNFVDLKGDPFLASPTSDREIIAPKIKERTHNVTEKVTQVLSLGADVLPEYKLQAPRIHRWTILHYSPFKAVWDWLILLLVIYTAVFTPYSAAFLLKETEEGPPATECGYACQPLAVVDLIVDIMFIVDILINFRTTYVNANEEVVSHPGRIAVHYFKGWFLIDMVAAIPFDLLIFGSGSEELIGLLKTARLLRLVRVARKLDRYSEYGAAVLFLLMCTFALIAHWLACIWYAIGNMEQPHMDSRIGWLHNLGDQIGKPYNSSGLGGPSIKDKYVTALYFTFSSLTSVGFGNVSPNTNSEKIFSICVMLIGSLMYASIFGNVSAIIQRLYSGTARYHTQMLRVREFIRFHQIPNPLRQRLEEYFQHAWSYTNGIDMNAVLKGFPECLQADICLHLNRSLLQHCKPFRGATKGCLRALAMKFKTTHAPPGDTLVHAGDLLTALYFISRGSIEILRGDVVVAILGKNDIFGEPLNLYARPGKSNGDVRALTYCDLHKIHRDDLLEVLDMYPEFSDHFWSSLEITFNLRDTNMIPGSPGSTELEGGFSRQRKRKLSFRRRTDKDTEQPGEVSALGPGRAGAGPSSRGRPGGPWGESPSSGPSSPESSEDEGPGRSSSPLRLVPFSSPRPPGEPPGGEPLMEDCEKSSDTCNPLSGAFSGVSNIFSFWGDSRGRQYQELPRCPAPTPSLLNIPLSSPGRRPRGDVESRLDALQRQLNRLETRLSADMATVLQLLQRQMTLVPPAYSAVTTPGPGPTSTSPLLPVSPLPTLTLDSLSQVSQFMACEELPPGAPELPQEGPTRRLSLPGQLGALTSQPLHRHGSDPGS
T1 sequence (P08546 whole entry): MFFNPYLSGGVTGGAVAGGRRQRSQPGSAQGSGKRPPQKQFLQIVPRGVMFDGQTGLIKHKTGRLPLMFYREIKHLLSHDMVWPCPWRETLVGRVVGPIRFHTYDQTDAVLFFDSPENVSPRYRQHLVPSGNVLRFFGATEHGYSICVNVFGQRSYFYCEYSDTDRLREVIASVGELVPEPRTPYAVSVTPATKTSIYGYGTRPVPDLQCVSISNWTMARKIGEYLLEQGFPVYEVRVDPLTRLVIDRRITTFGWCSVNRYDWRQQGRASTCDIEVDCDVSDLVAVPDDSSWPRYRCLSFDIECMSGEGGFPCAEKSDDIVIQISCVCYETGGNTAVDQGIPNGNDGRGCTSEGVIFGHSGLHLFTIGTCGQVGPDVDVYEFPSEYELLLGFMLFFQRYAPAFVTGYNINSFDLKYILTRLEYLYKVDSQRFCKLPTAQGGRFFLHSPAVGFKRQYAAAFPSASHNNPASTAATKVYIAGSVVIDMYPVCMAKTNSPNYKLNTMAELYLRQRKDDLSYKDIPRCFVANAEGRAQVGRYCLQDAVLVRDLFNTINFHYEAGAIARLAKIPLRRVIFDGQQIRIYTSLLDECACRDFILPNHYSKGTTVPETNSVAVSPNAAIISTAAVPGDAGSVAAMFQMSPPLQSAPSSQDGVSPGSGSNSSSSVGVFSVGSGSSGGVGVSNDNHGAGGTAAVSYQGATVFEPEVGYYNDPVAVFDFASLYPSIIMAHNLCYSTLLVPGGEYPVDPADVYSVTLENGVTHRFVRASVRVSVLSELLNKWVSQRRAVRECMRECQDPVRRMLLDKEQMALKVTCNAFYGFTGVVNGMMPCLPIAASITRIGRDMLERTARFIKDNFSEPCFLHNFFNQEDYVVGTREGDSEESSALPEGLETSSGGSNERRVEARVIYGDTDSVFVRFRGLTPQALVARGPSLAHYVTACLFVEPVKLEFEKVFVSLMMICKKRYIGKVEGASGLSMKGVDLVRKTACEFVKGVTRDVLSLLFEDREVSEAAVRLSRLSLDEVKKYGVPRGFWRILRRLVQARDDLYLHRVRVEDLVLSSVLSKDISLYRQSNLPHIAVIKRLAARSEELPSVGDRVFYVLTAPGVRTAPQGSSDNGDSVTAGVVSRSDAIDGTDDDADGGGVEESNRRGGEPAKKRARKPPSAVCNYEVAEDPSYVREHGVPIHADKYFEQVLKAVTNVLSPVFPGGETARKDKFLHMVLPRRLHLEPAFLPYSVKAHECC

In the case of `NCCN1CCN(c2cnc3c(cc(C(=O)NCc4ccc(Cl)cc4)c(=O)n3CC(=O)N3CC4(CC4)C3)n2)C1=O` [Compound 36, 2-[3-(2-aminoethyl)-2-oxoimidazolidin-1-yl]-5-[2-(5-azaspiro[2.3]hexan-5-yl)-2-oxoethyl]-N-[(4-chlorophenyl)methyl]-6-oxo-5,6-dihydropyrido[2,3-b]pyrazine-7-carboxamide], the IC50 is less than 1 µM in series [1] and greater than 10 µM at hERG potassium channel. For the same compound, in series [2], the EC50 is less than 1 µM. Also, half-maximal cytotoxicity in series [3] (CC50 at 4 days) was put at 18 µM.
Take `CC(=O)N(C)CCN1CCN(c2cnc3c(cc(C(=O)NCc4ccc(Cl)cc4)c(=O)n3CC(=O)N3CC(C)(F)C3)n2)C1=O` [Compound 22, 2-(3-{2-[acetyl(methyl)amino]ethyl}-2-oxoimidazolidin-1-yl)-N-[(4-chlorophenyl)methyl]-5-[2-(3-fluoro-3-methylazetidin-1-yl)-2-oxoethyl]-6-oxo-5,6-dihydropyrido[2,3-b]pyrazine-7-carboxamide]: the IC50 was less than 1 µM in series [1] and greater than 10 µM at hERG potassium channel (setting [4]). In addition, the EC50 in series [2] is greater than 1 µM. The compound further had a CC50 at 4 days in series [3] greater than 40 µM.
`CC1CCN(c2cnc3c(cc(C(=O)NCc4ccc(Cl)cc4)c(=O)n3CC(=O)N3CC(C)(F)C3)n2)C1=O` (stereo not drawn) [Compound 4, N-[(4-chlorophenyl)methyl]-5-[2-(3-fluoro-3-methylazetidin-1-yl)-2-oxoethyl]-2-(3-methyl-2-oxopyrrolidin-1-yl)-6-oxo-5,6-dihydropyrido[2,3-b]pyrazine-7-carboxamide]: the IC50 was less than 1 µM in series [1] and less than 10 µM on hERG potassium channel (setting [4]). The EC50 in series [2] is less than 1 µM. The compound further displayed a CC50 at 4 days in series [3] greater than 40 µM.
Take `CC1(F)CN(C(=O)Cn2c(=O)c(C(=O)NCc3ccc(Cl)cc3)cc3nc(N4CCN(CC(=O)N5CCC5)C4=O)cnc32)C1` [Compound 28, 2-{3-[2-(azetidin-1-yl)-2-oxoethyl]-2-oxoimidazolidin-1-yl}-N-[(4-chlorophenyl)methyl]-5-[2-(3-fluoro-3-methylazetidin-1-yl)-2-oxoethyl]-6-oxo-5,6-dihydropyrido[2,3-b]pyrazine-7-carboxamide]: the IC50 in series [1] is less than 1 µM; at hERG potassium channel (setting [4]), greater than 10 µM. The half-maximal effective concentration (EC50) in series [2] was less than 1 µM. For the same compound, the CC50 at 4 days in series [3] was greater than 40 µM.
For the compound `CN1CCN(c2cnc3c(cc(C(=O)NCc4ccc(Cl)cc4)c(=O)n3CC(=O)N3CC(C)(F)C3)n2)C1=O` [Compound 3, N-[(4-chlorophenyl)methyl]-5-[2-(3-fluoro-3-methylazetidin-1-yl)-2-oxoethyl]-2-(3-methyl-2-oxoimidazolidin-1-yl)-6-oxo-5,6-dihydropyrido[2,3-b]pyrazine-7-carboxamide], the IC50 in series [1] is less than 1 µM; at hERG potassium channel (setting [4]) it was greater than 10 µM. For the same compound, the EC50 in series [2] was less than 1 µM. This compound also came in with a CC50 at 4 days in series [3] greater than 40 µM.
With `CC1(C)CN(C(=O)Cn2c(=O)c(C(=O)NCc3ccc(Cl)cc3)cc3cc(N4CCN(C(C)(C)C(=O)O)C4=O)cnc32)C1` [Compound 45, 2-(3-(6-{[(4-chlorophenyl)methyl]carbamoyl}-8-(2-(3,3-dimethylazetidin-1-yl)-2-oxoethyl)-7-oxo-7,8-dihydro-1,8-naphthyridin-3-yl)-2-oxoimidazolidin-1-yl)-2-methylpropanoic acid], the values for the IC50 (in series [1]; on hERG potassium channel (setting [4])) were less than 1 µM and greater than 10 µM, respectively. For the same compound, in series [2], the EC50 is less than 1 µM. This compound gave a half-maximal cytotoxic concentration (CC50) at 4 days in series [3] greater than 40 µM.
As for `CC1(C)CN(C(=O)Cn2c(=O)c(C(=O)NCc3ccc(Cl)cc3)cc3cc(N4CCN(CC(=O)O)C4=O)cnc32)C1` [Compound 7, [3-(6-{[(4-chlorophenyl)methyl]carbamoyl}-8-[2-(3,3-dimethylazetidin-1-yl)-2-oxoethyl]-7-oxo-7,8-dihydro-1,8-naphthyridin-3-yl)-2-oxoimidazolidin-1-yl]acetic acid], in series [2], the EC50 was greater than 1 µM. Moreover, the CC50 at 4 days in series [3] is greater than 40 µM. In addition, the IC50 at hERG potassium channel (setting [4]) was greater than 10 µM.
For `CC1(C)CN(C(=O)Cn2c(=O)c(C(=O)NCc3ccc(Cl)cc3)cc3nc(N4CCN(CC(=O)O)C4=O)cnc32)C1` [Compound 5, [3-(7-{[(4-chlorophenyl)methyl]carbamoyl}-5-[2-(3,3-dimethylazetidin-1-yl)-2-oxoethyl]-6-oxo-5,6-dihydropyrido[2,3-b]pyrazin-2-yl)-2-oxoimidazolidin-1-yl]acetic acid], in series [2], the EC50 was greater than 1 µM. Further, the CC50 at 4 days in series [3] was greater than 40 µM. For the same compound, the IC50 on hERG potassium channel (setting [4]) is greater than 10 µM.
